Data published in US20100210532A1, “USE OF NEUROPEPTIDE SF, ALONE OR IN COMBINATION WITH GLP-2, AS A THERAPEUTIC AGENT” (priority 2007, published 2010).
Where no end group is shown, it is not given here.

Assays:
HIV-1IIIB = assay: HIV-1 antiviral assay in CEM-SS cells (MTS readout); conditions: positive controls of the HIV-1 assay
HCMV strain AD169 = assay: HCMV plaque formation assay in MRC-5 cells; conditions: for inhibition of HCMV plaque formation as compared to the virus control experiment: 10 micrograms per ml, MRC-5 cells, 7-10 days, combination 0.95 mole peptide 1 and 1.05 mole peptide 2
Interleukin-5 (IL-5) = assay: Th1/Th2 cytokine profiling assay, IL-5; type: cell-based, mouse; conditions: 10 micrograms per ml, Ovalbumin-restimulated Balb/c spleen cells, 72 hours; for change of the production of IL-5 in murine spleen cells: combination 0.95 mole peptide 1 and 1.05 mole peptide 2
Excerpt: (§1) The Balb/c mice (originated in 1923, it is a popular strain and is used in many different research disciplines. […] On day 50, spleens of the mice were harvested (3 weeks after last boost with Ovalbumin). […] This kit can be used to measure Interleukin-2 (IL-2), Interleukin-4 (IL-4), Interleukin-5 (IL-5), Interferon-γ (IFN-γ), and Tumor Necrosis Factor-α (TNF-α) protein levels in a single sample. The kit performance has been optimized for analysis of physiologically relevant concentrations ([…] levels) of specific cytokine proteins in tissue culture supernatants and serum samples.

Human A549 cells = assay: Apoptosis prevention assay (C2 ceramide, Annexin-5); type: cell-based; conditions: 10 micrograms per ml, 30 min pretreatment
[1] = system: Primary Human endothelial cells (HUVEC); assay: Endothelial cell migration assay; type: cell-based; conditions: 10 micrograms per ml, 22 hours
Interleukin-4 (IL-4) = assay: Th1/Th2 cytokine profiling assay, IL-4; type: cell-based, mouse; conditions: 10 micrograms per ml, Ovalbumin-restimulated Balb/c spleen cells, 72 hours; for production of IL-4 in murine spleen cells, induced by: combination 0.95 mole peptide 1 and 1.05 mole peptide 2
Excerpt: as §1

HUVEC = assay: Endothelial tube formation assay; type: cell-based, human; conditions: 10 micrograms per ml, 20 hours
Procedure: The endothelial tube formation assay is based on the ability of endothelial cells to form three-dimensional capillary-like tubular structures when cultured on a gel of basement membrane extract. The endothelial tube formation assay represents a powerful model for studying inhibition and induction of angiogenesis. Pre-labeled HUVEC with Calcein AM were seeded in a 96-well culture plate coated with extracellular metrix (Chemicon international Cat. ECM625) and treated with test peptides-10 micrograms per ml-in full growth medium. […] control was vehicle only. […] Duplicate wells for each treatment were photographed and quantitatevily analyzed for an average tubule length using image analysis software ImageProPlus. Raw data were expressed as average tubule […]±standard deviation. Statistic p values were computed using the Student's t-test.

[2] = system: hepatitis B virus (HBV) ayw strain; assay: HBV experimental assay system, HepG2-2.2.15 cells, secreted HBV DNA by TaqMan PCR; type: cell-based; conditions: 10 micrograms per ml, six days, combination 0.95 mole peptide 1 and 1.05 mole peptide 2
Interferon-γ (IFN-γ) = assay: Th1/Th2 cytokine profiling assay, IFN-γ; type: cell-based, mouse; conditions: 10 micrograms per ml, Ovalbumin-restimulated Balb/c spleen cells, 72 hours
Excerpt: as §1

Interleukin-2 (IL-2) = assay: Th1/Th2 cytokine profiling assay, IL-2; type: cell-based, mouse; conditions: 10 micrograms per ml, Ovalbumin-restimulated Balb/c spleen cells, 72 hours; for production of IL-2 in murine spleen cells, induced by: combination 0.95 mole peptide 1 and 1.05 mole peptide 2
Excerpt: as §1

[3] = system: Tumor Necrosis Factor-α (TNF-α); assay: Th1/Th2 cytokine profiling assay, TNF-α; type: cell-based, mouse; conditions: 10 micrograms per ml, Ovalbumin-restimulated Balb/c spleen cells, 72 hours; for production of TNF-alpha in murine spleen cells, induced by: combination 0.95 mole peptide 1 and 1.05 mole peptide 2
Excerpt: as §1

| Molecule | antiviral activity of positive control compounds (HIV-1IIIB) | antiviral activity of positive control compound (HCMV strain AD169; positive control of the HCMV assay) | IL-5 spleen cells; TH2 response (% of control) (Interleukin-5 (IL-5)) | change of the production of IL-5 in murine spleen cells (Interleukin-5 (IL-5)) | inhibition of HCMV plaque formation as compared to the virus control experiment (HCMV strain AD169) | reduction of the ceramide-induced apoptosis on human lung cells (Human A549 cells) | inhibition of the migration of human endothelial cells [1] | IL-4 spleen cells; TH2 response (% of control) (Interleukin-4 (IL-4)) | production of IL-4 in murine spleen cells, induced by (Interleukin-4 (IL-4)) | inhibition of the tube formation of human endothelial cells (HUVEC) | inhibition of HBV replication as compared to the virus control infection [2] | IFNγ spleen cells; TH1 response (% of control) (Interferon-γ (IFN-γ)) | production of IFN-γ in murine spleen cells, induced by (Interferon-γ (IFN-γ); combination 0.95 mole peptide 1 and 1.05 mole peptide 2) | IL-2 spleen cells (% of control) (Interleukin-2 (IL-2)) | production of IL-2 in murine spleen cells, induced by (Interleukin-2 (IL-2)) | TNF-a spleen cells; TH1 response (% of control) [3] | production of TNF-alpha in murine spleen cells, induced by [3] | production of IFN-γ in murine spleen cells, decreased by (Interferon-γ (IFN-γ)) |
| --- | --- | --- | --- | --- | --- | --- | --- | --- | --- | --- | --- | --- | --- | --- | --- | --- | --- | --- |
| Cc1cn([C@H]2C[C@H](N=[N+]=[N-])[C@@H](CO)O2)c(=O)[nH]c1=O [AZT] | expected levels of antiviral activity |  |  |  |  |  |  |  |  |  |  |  |  |  |  |  |  |  |
| Nc1nc(O)c2ncn(COC(CO)CO)c2n1 [Ganciclovir, reference compound] |  | expected levels of antiviral activity |  |  |  |  |  |  |  |  |  |  |  |  |  |  |  |  |
| CC(C)(C)NC(=O)[C@@H]1CN(Cc2cccnc2)CCN1C[C@@H](O)C[C@@H](Cc1ccccc1)C(=O)N[C@H]1c2ccccc2C[C@H]1O [indinavir] | expected levels of antiviral activity |  |  |  |  |  |  |  |  |  |  |  |  |  |  |  |  |  |
| His-Ala-Asp-Gly-Ser-Phe-Ser-Asp-Glu-Met-Asn-Thr-Ile-Leu-Asp-Asn-Leu-Ala-Ala-Arg-Asp-Phe-Ile-Asn-Trp-Leu-Ile-Gln-Thr-Lys-Ile-Thr-Asp-OH [Peptide 2] |  |  | 108.4 % of control | did not significantly change | 18.8% | did not reduce | did not inhibit | 104.4 % of control | did not significantly change | 12% | 59.2% | 132.7 % of control | 32.7% | 183.3 % of control | 83.3% | 143.7 % of control | 43.7% |  |
| Ser-Gln-Ala-Phe-Leu-Phe-Gln-Pro-Gln-Arg-Phe-NH2 (SQAFLFQPQRF-NH2) [Peptide 1] |  |  | 91.6 % of control | did not significantly change | 31.3% | 16.45% | 33% | 242.2 % of control | 142.2% | 19% | 16.7% | 68.0 % of control |  | 112.4 % of control | did not significantly change | 106.3 % of control | did not significantly change | 32.0% |
